Measurements as given in PMC11207335, “In Vitro Metabolism and Transport Characteristics of Zastaprazan” (Pharmaceutics, 2024).
pIC50, pKi: −log10 of the molar value.

Key:
[1] = biological target: T1, human cDNA-expressed CYP2C8 (Homo sapiens, UniProt P10632); assay: Enzyme kinetics of JP-1366 metabolism in cDNA-expressed CYP2C8; assay type: in vitro ADME
T1 construct: purchased Corning Life Sciences
T1 sequence (P10632 1-490): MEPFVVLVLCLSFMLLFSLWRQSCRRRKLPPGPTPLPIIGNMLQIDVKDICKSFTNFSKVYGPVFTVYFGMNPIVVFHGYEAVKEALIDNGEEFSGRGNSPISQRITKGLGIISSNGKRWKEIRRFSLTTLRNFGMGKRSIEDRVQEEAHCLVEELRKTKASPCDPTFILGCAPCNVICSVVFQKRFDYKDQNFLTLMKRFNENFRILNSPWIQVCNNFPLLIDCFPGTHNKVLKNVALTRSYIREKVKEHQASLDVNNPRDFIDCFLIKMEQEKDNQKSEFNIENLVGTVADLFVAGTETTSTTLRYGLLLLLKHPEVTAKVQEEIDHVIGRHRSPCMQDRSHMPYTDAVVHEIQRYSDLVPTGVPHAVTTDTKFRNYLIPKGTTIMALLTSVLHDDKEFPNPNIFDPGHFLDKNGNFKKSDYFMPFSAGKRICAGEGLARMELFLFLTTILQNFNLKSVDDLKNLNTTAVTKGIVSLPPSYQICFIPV
Experimental: (§1) The reaction was initiated by adding 5 μL of NADPH-generating system in triplicate, and the mixture was further incubated for 30 min at 37 °C in a shaking water bath.
(§2) The concentrations of the metabolites were quantitated, and their formation rates (pmol/mg protein/min) were calculated by dividing the amounts of metabolites formed from the incubation with human liver microsomes and human cDNA-expressed CYP or UGT enzymes by the incubation time.

[2] = biological target: T2, human cDNA-expressed CYP3A5 (Homo sapiens, UniProt P20815); assay: Enzyme kinetics of JP-1366 metabolism in cDNA-expressed CYP3A5; assay type: in vitro ADME
T2 construct: purchased Corning Life Sciences
T2 sequence (P20815 whole entry): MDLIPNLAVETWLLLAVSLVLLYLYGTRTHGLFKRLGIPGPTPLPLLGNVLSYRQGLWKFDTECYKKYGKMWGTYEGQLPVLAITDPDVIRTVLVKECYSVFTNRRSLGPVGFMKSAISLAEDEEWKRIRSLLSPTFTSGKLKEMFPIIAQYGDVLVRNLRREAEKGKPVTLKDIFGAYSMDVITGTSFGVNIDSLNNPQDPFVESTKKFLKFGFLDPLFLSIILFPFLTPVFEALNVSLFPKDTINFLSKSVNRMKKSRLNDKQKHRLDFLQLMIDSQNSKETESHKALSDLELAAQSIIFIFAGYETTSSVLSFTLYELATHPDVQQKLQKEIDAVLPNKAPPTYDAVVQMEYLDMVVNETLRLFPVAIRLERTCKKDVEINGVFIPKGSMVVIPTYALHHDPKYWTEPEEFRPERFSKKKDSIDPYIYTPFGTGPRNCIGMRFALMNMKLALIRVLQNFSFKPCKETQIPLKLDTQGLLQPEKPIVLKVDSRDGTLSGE
Experimental: as §1, §2

[3] = tested on: human liver microsomes (HLM); assay: Enzyme kinetics of JP-1366 metabolism in human liver microsomes; assay type: in vitro ADME
Experimental: as §1, §2

[4] = biological target: T3, human cDNA-expressed CYP2C9 (Homo sapiens, UniProt P11712); assay: Enzyme kinetics of JP-1366 metabolism in cDNA-expressed CYP2C9; assay type: in vitro ADME
T3 construct: purchased Corning Life Sciences
T3 sequence (P11712 whole entry): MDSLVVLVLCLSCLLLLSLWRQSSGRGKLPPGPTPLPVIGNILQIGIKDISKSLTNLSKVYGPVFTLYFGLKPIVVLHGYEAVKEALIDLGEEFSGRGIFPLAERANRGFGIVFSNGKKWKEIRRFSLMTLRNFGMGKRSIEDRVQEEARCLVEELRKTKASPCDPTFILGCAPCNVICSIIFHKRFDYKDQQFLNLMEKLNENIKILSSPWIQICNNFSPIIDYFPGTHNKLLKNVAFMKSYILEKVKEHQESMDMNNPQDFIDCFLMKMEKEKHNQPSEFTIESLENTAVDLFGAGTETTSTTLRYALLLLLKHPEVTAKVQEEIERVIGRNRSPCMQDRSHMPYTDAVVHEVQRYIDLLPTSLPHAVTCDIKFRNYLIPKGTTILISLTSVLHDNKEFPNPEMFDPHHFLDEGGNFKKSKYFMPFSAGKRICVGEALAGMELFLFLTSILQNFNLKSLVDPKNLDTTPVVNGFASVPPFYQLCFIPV
Experimental: as §1, §2

[5] = cited from earlier work
A3 = A3 (Homo sapiens, UniProt P0DMS8); assay: BioPrint profiling, A3; conditions: BioPrint profiling (Eurofins CEREP)
Sequence of A3 (P0DMS8 whole entry): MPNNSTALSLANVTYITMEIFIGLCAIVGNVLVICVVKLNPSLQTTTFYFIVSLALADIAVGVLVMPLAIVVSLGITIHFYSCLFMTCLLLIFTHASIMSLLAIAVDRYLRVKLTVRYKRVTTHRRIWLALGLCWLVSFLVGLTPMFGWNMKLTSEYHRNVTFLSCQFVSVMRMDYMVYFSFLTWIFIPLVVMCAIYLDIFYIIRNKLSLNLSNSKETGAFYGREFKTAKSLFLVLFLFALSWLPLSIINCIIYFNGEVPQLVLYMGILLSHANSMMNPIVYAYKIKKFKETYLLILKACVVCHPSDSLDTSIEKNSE
From the text: However, the involvement of multiple metabolizing enzymes such as CYP1A2, CYP2C9/19, CYP1A2, and CYP2D6 with a minor contribution in the formation of M1, M6, M19, and M21 and the involvement of UGT1A1 and UGT2B7 in the formation of M15 from M1 and the formation of 23 metabolites might reduce the risk of drug–drug interaction potential mediated by a single metabolizing enzyme and a main metabolite. Additionally, it may reduce the intersubject variability caused by genetic variations in these metabolizing enzymes.

α2B = α2B (Homo sapiens, UniProt P18089); assay: BioPrint profiling, α2B; conditions: BioPrint profiling (Eurofins CEREP)
Sequence of α2B (P18089 whole entry): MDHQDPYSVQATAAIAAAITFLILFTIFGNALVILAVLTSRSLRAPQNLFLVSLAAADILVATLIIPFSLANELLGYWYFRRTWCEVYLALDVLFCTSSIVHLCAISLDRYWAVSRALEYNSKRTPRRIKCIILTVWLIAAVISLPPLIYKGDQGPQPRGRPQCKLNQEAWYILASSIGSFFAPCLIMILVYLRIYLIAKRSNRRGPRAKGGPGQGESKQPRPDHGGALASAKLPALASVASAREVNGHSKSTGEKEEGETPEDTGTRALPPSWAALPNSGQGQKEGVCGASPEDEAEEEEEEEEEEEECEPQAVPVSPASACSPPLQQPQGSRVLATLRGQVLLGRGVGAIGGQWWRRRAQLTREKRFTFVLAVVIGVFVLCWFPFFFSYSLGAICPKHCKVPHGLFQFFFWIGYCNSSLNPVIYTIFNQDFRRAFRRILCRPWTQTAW

[6] = formation of the labelled metabolite from JP-1366, CYP3A5
[7] = formation of the labelled metabolite from JP-1366, CYP2C9

Structure (SMILES)	CLint ([1]; formation of the labelled metabolite from JP-1366, CYP2C8) [μL/min/pmol CYP]	Contribution (%) ([1]; relative contribution of CYP2C8 to formation of the labelled metabolite)	pKi ([1]; substrate inhibition kinetics, formation of the labelled metabolite, CYP2C8)	CLint [2, 6] [μL/min/pmol CYP]	n (Hill coefficient) [2, 6]	Contribution (%) ([2]; relative contribution of CYP3A5 to formation of the labelled metabolite)	Vmax ([3]; formation of the labelled metabolite from JP-1366, HLM) [pmol/min/mg protein]	pKi ([3]; substrate inhibition kinetics, formation of the labelled metabolite, HLM)	CLint [4, 7] [μL/min/pmol CYP]	n (Hill coefficient) [4, 7]	Contribution (%) ([4]; relative contribution of CYP2C9 to formation of the labelled metabolite)	safety and tolerability ([5]; SAD up to 60 mg, MAD up to 40 mg, healthy male Korean subjects)	dose-normalized AUC among genetic variants of CYP2C19, CYP3A5, CYP2D6, UGT1A1, and UGT2B17 [5]	pIC50 (A3)	pIC50 (α2B)
Cc1cccc(CO)c1CNc1cc(C(=O)N2CCC2)cn2c(C)c(C)nc12 [M1, azetidin-1-yl(8-((2-(hydroxymethyl)-6-methyl-benzyl)amino)-2,3-dimethylimidazo[1,2-a]pyridin-6-yl)methanone]	0.031	3.7	3.70	0.33	1.5	68.6	826.1	4.02	0.14	1.2	10.3	–	–	–	–
Cc1cccc(C)c1CNc1cc(C(=O)N2CCC2)cn2c(C)c(C)nc12 [JP-1366, 1-azetidinyl(8-(((2,6-dimethylphenyl)methyl)amino)-2,3-dimethylimidazo(1,2-a)pyridin-6-yl)methanone]	–	–	–	–	–	–	–	–	–	–	–	safe and well tolerated	not significantly different	5.57	5.92
